Tested on: CD1 female mouse brain lipidome
Test: Brain-region lipid levels (HPLC/MS/MS lipidomics) 2 h after single i.p. 3 mg/kg CP 55,940 vs vehicle
Type: in vivo
Design: N-arachidonoyl phenylalanine level, Mean / N-stearoyl tryptophan level, Mean / N-stearoyl proline level, Mean / N-stearoyl leucine level, Mean / N-stearoyl phenylalanine level, Mean / N-stearoyl serine level, Mean / N-stearoyl methionine level, Mean: unit: moles per gram
Conditions: hippocampus
Procedure: The Bloomington Institutional Animal Care and Use Committee of Indiana University reviewed and approved the animal procedures. Female mice from the CD1 strain were utilized to match our study examining THC’s effects on the brain lipidome ([Leishman et al., 2018]). Mice were given a single i.p. injection of either 3 mg/kg CP or 1:1:18 cremophor:ethanol:saline vehicle (please refer to the section “3 mg/kg CP Is Relevant for Synthetic Cannabinoid Abuse and Has Stronger Effects on the Female Mouse Brain Lipidome During Adolescence” for a justification of dose and use of female mice). Three different age groups were given injections: PND 35 and PND 50 adolescents, and adult mice (PND 113). At least eight mice in each age group received CP and at least eight received vehicle. Matching the THC study time course ([Leishman et al., 2018]), mice were sacrificed via rapid decapitation 2 h after injection. Brains were immediately removed and flash-frozen in liquid nitrogen, and then stored at -80°C until dissections were performed. Brains were dissected on an ice-cold dissection plate into the following regions: STR, HIPP, CER, THAL, CTX, HYP, MID, and STEM. These abbreviations for these brain areas will be used exclusively when discussing the results generated by these specific dissections. Each dissected area was immediately placed in liquid nitrogen and then stored at -80°C until used for lipid extraction.
Tissue extracts were performed as previously described ([Bradshaw et al., 2006]; [Stuart et al., 2013]; [Raboune et al., 2014]; [Leishman et al., 2016a],[b], [2017], [2018]). First, samples were shock frozen in liquid nitrogen, weighed, and transferred to a centrifuge tube. The mass of the largest sample was multiplied by 50 to determine how many milliliters of HPLC-grade methanol (Fisher, Fair Lawn, NJ, United States) to add. Then, samples were spiked with 500 pmol deuterium-labeled NAGly (d8NAGly; Cayman Chemical, Ann Arbor, MI, United States). Samples were placed on ice in darkness for 2 h then individually homogenized and centrifuged at 19,000 × g for 20 min at 20°C. Supernatants were diluted with HPLC water (purified in house) to make a solution of 75% water, 25% supernatant. Lipids were partially purified on C18 solid phase extraction columns (Agilent, Palo Alto, CA, United States). A series of four elutions with 1.5 mL of 60%, 75%, 85%, and 100% methanol were collected ([Stuart et al., 2013]; [Leishman et al., 2016a],[b], [2018]).
As previously described ([Bradshaw et al., 2006]; [Tan et al., 2006]; [Smoum et al., 2010]; [Stuart et al., 2013]; [Tortoriello et al., 2013]; [Raboune et al., 2014]; [Leishman et al., 2016a],[b], [2017], [2018]), samples were analyzed using an Applied Biosystems API 3000 triple quadrupole mass spectrometer with electrospray ionization (Foster City, CA, United States). Using an Agilent XDB-C18 reversed phase analytical column and optimized mobile phase gradients, 20 μL from each elution were chromatographed. Two Shimadzu 10ADvp pumps (Columbia, MD, United States) provided the pressure for gradient elution. Mobile phase A: 20% methanol, 80% water (v/v) and 1 mM ammonium acetate (Sigma, St. Louis, MO, United States). Mobile phase B: 100% methanol, 1 mM ammonium acetate. Every method run began with 0% mobile phase B, reached 100% mobile phase B flowing at 0.2 mL/min, and gradually returned to 0% mobile phase B.
This screening library will be referred to as the lipidome when discussing data from this study. HPLC/MS/MS data were analyzed using Analyst software (Applied Biosystems) ([Bradshaw et al., 2006]; [Tan et al., 2006]; [Stuart et al., 2013]; [Tortoriello et al., 2013]; [Raboune et al., 2014]; [Leishman et al., 2016a],[b], [2017], [2018]). Chromatograms (Supplementary Figure 3) were generated by determining the retention time of analytes from the analytical column with a [M-1] or [M+1] parent peak and a fragmentation peak corresponding to the programmed values. […]

[1] = PND 35, 3 mg/kg CP 55,940 vs vehicle
[2] = PND 35 WT female mice, 3mg/kg CP 55,940

Structure (SMILES): CCCCCCC(C)(C)c1ccc([C@@H]2C[C@H](O)CC[C@H]2CCCO)c(O)c1 [CP 55,940]
- THC level, Mean (adult, 3 mg/kg CP 55,940): BDL
- phosphoLEA: Direction (relative to Veh) (adult, 3 mg/kg CP 55,940): ↑
- phosphoLEA: Magnitude (x Veh level) (adult, 3 mg/kg CP 55,940): 1.45 x Veh level
- 2-arachidonoyl glycerol: Direction [1]: ↓
- 2-arachidonoyl glycerol: Magnitude [1]: 0.79
- 2-linoleoyl glycerol: Direction [1]: ↓
- 2-linoleoyl glycerol: Magnitude [1]: 0.63
- 2-oleoyl glycerol: Direction [1]: ↓
- 2-oleoyl glycerol: Magnitude [1]: 0.82
- 6-ketoPGF1α: Direction [1]: ↑
- 6-ketoPGF1α: Magnitude [1]: 1.32
- Arachidonic acid: Direction [1]: ↓
- Arachidonic acid: Magnitude [1]: 0.84
- Linoleic acid: Direction [1]: ↓
- Linoleic acid: Magnitude [1]: 0.77
- N-arachidonoyl GABA: Direction [1]: ↓
- N-arachidonoyl GABA: Magnitude [1]: 0.66
- N-arachidonoyl alanine: Direction [1]: ↓
- N-arachidonoyl alanine: Magnitude [1]: 0.76
- N-arachidonoyl ethanolamine: Direction [1]: ↓
- N-arachidonoyl ethanolamine: Magnitude [1]: 0.82
- N-arachidonoyl glycine: Direction [1]: ↓
- N-arachidonoyl glycine: Magnitude [1]: 0.86
- N-arachidonoyl phenylalanine: Direction [1]: ↓
- N-arachidonoyl phenylalanine: Magnitude [1]: 0.76
- N-arachidonoyl serine: Direction [1]: ↓
- N-arachidonoyl serine: Magnitude [1]: 0.49
- N-arachidonoyl taurine: Direction [1]: ↓
- N-arachidonoyl taurine: Magnitude [1]: 0.81
- N-docosahexaenoyl GABA: Direction [1]: ↓
- N-docosahexaenoyl GABA: Magnitude [1]: 0.52
- N-docosahexaenoyl alanine: Direction [1]: ↓
- N-docosahexaenoyl alanine: Magnitude [1]: 0.76
- N-docosahexaenoyl ethanolamine: Direction [1]: ↓
- N-docosahexaenoyl ethanolamine: Magnitude [1]: 0.71
- N-docosahexaenoyl glycine: Direction [1]: ↓
- N-docosahexaenoyl glycine: Magnitude [1]: 0.83
- N-docosahexaenoyl leucine: Direction [1]: ↑
- N-docosahexaenoyl leucine: Magnitude [1]: 1.41
- N-docosahexaenoyl serine: Direction [1]: ↓
- N-docosahexaenoyl serine: Magnitude [1]: 0.74
- N-linoleoyl GABA: Direction [1]: ↓
- N-linoleoyl GABA: Magnitude [1]: 0.55
- N-linoleoyl alanine: Direction [1]: ↓
- N-linoleoyl alanine: Magnitude [1]: 0.82
- N-oleoyl GABA: Direction [1]: ↓
- N-oleoyl GABA: Magnitude [1]: 0.59
- N-oleoyl alanine: Direction [1]: ↓
- N-oleoyl alanine: Magnitude [1]: 0.75
- N-oleoyl ethanolamine: Direction [1]: ↓
- N-oleoyl ethanolamine: Magnitude [1]: 0.77
- N-oleoyl glycine: Direction [1]: ↓
- N-oleoyl glycine: Magnitude [1]: 0.87
- N-oleoyl methionine: Direction [1]: ↓
- N-oleoyl methionine: Magnitude [1]: 0.68
- N-oleoyl valine: Direction [1]: ↑
- N-oleoyl valine: Magnitude [1]: 1.27
- N-palmitoyl alanine: Direction [1]: ↓
- N-palmitoyl alanine: Magnitude [1]: 0.85
- N-palmitoyl ethanolamine: Direction [1]: ↓
- N-palmitoyl ethanolamine: Magnitude [1]: 0.79
- N-palmitoyl leucine: Direction [1]: ↑
- N-palmitoyl leucine: Magnitude [1]: 1.31
- N-palmitoyl phenylalanine: Direction [1]: ↑
- N-palmitoyl phenylalanine: Magnitude [1]: 1.26
- N-palmitoyl tyrosine: Direction [1]: ↑
- N-palmitoyl tyrosine: Magnitude [1]: 1.29
- N-palmitoyl valine: Direction [1]: ↑
- N-palmitoyl valine: Magnitude [1]: 1.24
- N-stearoyl GABA: Direction [1]: ↓
- N-stearoyl GABA: Magnitude [1]: 0.77
- N-stearoyl alanine: Direction [1]: ↓
- N-stearoyl alanine: Magnitude [1]: 0.79
- N-stearoyl glycine: Direction [1]: ↓
- N-stearoyl glycine: Magnitude [1]: 0.87
- N-stearoyl valine: Direction [1]: ↑
- N-stearoyl valine: Magnitude [1]: 1.39
- Oleic acid: Direction [1]: ↓
- Oleic acid: Magnitude [1]: 0.82
- PGF2α: Direction [1]: ↑
- PGF2α: Magnitude [1]: 1.28
- 2-arachidonoyl glycerol level, Mean [2]: 2.47E-10
- 2-linoleoyl glycerol level, Mean [2]: 1.2E-10
- 2-oleoyl glycerol level, Mean [2]: 9.43E-10
- 2-palmitoyl glycerol level, Mean [2]: 7.71E-10
- 6-ketoPGF1α level, Mean [2]: 1.92E-11
- 11-OH-THC level, Mean [2]: BDL
- 11-nor-9-carboxyTHC level, Mean [2]: BDL
- Arachidonic acid level, Mean [2]: 4.25E-09
- Cannabidiol level, Mean [2]: BDL
- Linoleic acid level, Mean [2]: 9.72E-10
- N- stearoyl valine level, Mean [2]: 8.48E-13
- N-arachidonoyl GABA level, Mean [2]: 2.17E-11
- N-arachidonoyl alanine level, Mean [2]: 1.79E-11
- N-arachidonoyl dopamine level, Mean [2]: BDL
- N-arachidonoyl ethanolamine level, Mean [2]: 4.75E-11
- N-arachidonoyl glycine level, Mean [2]: 6.69E-11
- N-arachidonoyl methionine level, Mean [2]: PISSR
- N-arachidonoyl phenylalanine level, Mean [2]: 1.21E-12
- N-arachidonoyl proline level, Mean [2]: BDL
- N-arachidonoyl serine level, Mean [2]: 8.58E-12
- N-arachidonoyl taurine level, Mean [2]: 2.18E-10
